Laboratory results reported in patent US5175100A, “Stereospecific resolution by hydrolysis of esters of 2-arylpropionic acids by liver enzymes” (Rhone-Poulenc, Inc., priority 1991, dated 1992).

Assays:
Type in all cases: biochemical
[1] = test system: Liver acetone powder from Calf; assay: Hydrolysis of ketoprofen esters by calf liver acetone powder
Description: (§1) A solution of 50 mg of ketoprofen methyl ester in 0.2 ml of ethanol was added to 10 mg of each of liver acetone powder from various animal sources (described in Table 1) in 5 ml of 0.1M potassium phosphate buffer (pH 7.0) After shaking at room temperature for 24 hours, the reaction mixtures were acidified to pH 2.0 with 6(N) HCl and extracted with 10 ml of ethyl acetate. A portion of the ethyl acetate extract was analyzed by HPLC on a Partisil 5 ODS-3 RAC column (9.4 mm×100 mm, Whatman) using a mixture of methanol and 10 mM ammonium dihydrogen phospate (9:1) and monitored by UV at 254 nm to determine the percentages of acid produced in the reaction.
(§2) To determine the percentage of R- and S-acid, a portion of the ethyl acetate extract was converted to the amide derivative of the acid produced with R(+)-1-phenylethylamine as follows. The ethyl acetate extract (5 ml) was dried over sodium sulfate, filtered and cooled to 0° C. To the cold solution was added 0.2 ml of N-methylmorpholine followed by 0.2 ml of isobutyl chloroformate. After gentle shaking at 0° C. for 10 minutes, 0.2 ml of R(+)-1-phenylethylamine was added and the shaking was continued at 0° C. for 5 minutes and at room temperature for another 5 minutes. The reaction mixture was washed successively with water (5 ml), 1(N) HCl (5 ml), and water (5 ml) to provide the amide derivative in ethyl acetate solution. The ethyl acetate solution of the amide derivative was then analyzed by HPLC on the same column and same solvent mixture but with a different composition, i.e., a ratio of 6:4, and monitored by UV to determine the percentages of R- acid and S-acids produced by hydrolysis. The enantiomeric excess (EE) is defined as the difference in percent between the percent R- acid and the percent S-acid, the higher enantiomer being reported in the parenthesis in Table I.
(§3) Several esters of ketoprofen (0.2 millimole) with various alkyl groups of varying chain length were hydrolyzed using liver acetone powders from bovine, calf and dog by the procedure described in Example 1. The reaction mixtures were analyzed by the same procedures as described in Example 1 and the results obtained are summarized in Table II.

[2] = test system: Liver acetone powder from Cat; assay: Hydrolysis of ketoprofen methyl ester by cat liver acetone powder
Description: as §1, §2

[3] = test system: Liver acetone powder from Trout; assay: Hydrolysis of ketoprofen methyl ester by trout liver acetone powder; conditions: Trout powder 10 mg, 50 mg ester, pH 7.0, room temperature, 24 hours
Description: as §1

[4] = test system: Liver acetone powder from Salmon; assay: Hydrolysis of ketoprofen methyl ester by salmon liver acetone powder; conditions: Salmon powder 10 mg, 50 mg ester, pH 7.0, room temperature, 24 hours
Description: as §1

[5] = test system: Liver acetone powder from Turtle; assay: Hydrolysis of ketoprofen methyl ester by turtle liver acetone powder; conditions: Turtle powder 10 mg, 50 mg ester, pH 7.0, room temperature, 24 hours
Description: as §1

[6] = test system: Liver acetone powder from Seal; assay: Hydrolysis of ketoprofen methyl ester by seal liver acetone powder
Description: as §1, §2

[7] = test system: Liver acetone powder from Porcine; assay: Hydrolysis of ketoprofen methyl ester by porcine liver acetone powder; conditions: Porcine powder 10 mg, 50 mg ester, pH 7.0, room temperature, 24 hours
Description: as §1

[8] = test system: Liver acetone powder from Lungfish; assay: Hydrolysis of ketoprofen methyl ester by lungfish liver acetone powder; conditions: Lungfish powder 10 mg, 50 mg ester, pH 7.0, room temperature, 24 hours
Description: as §1

[9] = test system: Liver acetone powder from Horse; assay: Hydrolysis of ketoprofen methyl ester by horse liver acetone powder
Description: as §1, §2

[10] = test system: Liver acetone powder from Eel*; assay: Hydrolysis of ketoprofen methyl ester by eel (Anguilla anguilla) liver acetone powder; conditions: Eel (Anguilla anguilla) powder 10 mg, 50 mg ester, pH 7.0, room temperature, 24 hours
Description: as §1

[11] = test system: Liver acetone powder from Mouse; assay: Hydrolysis of ketoprofen methyl ester by mouse liver acetone powder
Description: as §1, §2

[12] = test system: Liver acetone powder from Sheep; assay: Hydrolysis of ketoprofen methyl ester by sheep liver acetone powder
Description: as §1, §2

[13] = test system: Liver acetone powder from Guinea Pig; assay: Hydrolysis of ketoprofen methyl ester by guinea pig liver acetone powder; conditions: Guinea Pig powder 10 mg, 50 mg ester, pH 7.0, room temperature, 24 hours
Description: as §1

[14] = test system: Liver acetone powder from Bovine; assay: Hydrolysis of ketoprofen esters by bovine liver acetone powder
Description: as §1, §2, §3

[15] = test system: Liver acetone powder from Pigeon; assay: Hydrolysis of ketoprofen methyl ester by pigeon liver acetone powder
Description: as §1, §2

[16] = test system: Liver acetone powder from Dog; assay: Hydrolysis of ketoprofen esters by dog liver acetone powder
Description: as §1, §2, §3

[17] = test system: Liver acetone powder from Eel**; assay: Hydrolysis of ketoprofen methyl ester by eel (Electrophorous electricus) liver acetone powder; conditions: Eel (Electrophorous electricus) powder 10 mg, 50 mg ester, pH 7.0, room temperature, 24 hours
Description: as §1

[18] = test system: Liver acetone powder from Chicken; assay: Hydrolysis of ketoprofen methyl ester by chicken liver acetone powder
Description: as §1, §2

[19] = test system: Liver acetone powder from Rabbit; assay: Hydrolysis of ketoprofen methyl ester by rabbit liver acetone powder
Description: as §1, §2

[20] = test system: Liver acetone powder from Lemon Shark; assay: Hydrolysis of ketoprofen methyl ester by lemon shark liver acetone powder; conditions: Lemon Shark powder 10 mg, 50 mg ester, pH 7.0, room temperature, 24 hours
Description: as §1

[21] = test system: Liver acetone powder from Goat; assay: Hydrolysis of ketoprofen methyl ester by goat liver acetone powder
Description: as §1, §2

[22] = test system: Liver acetone powder from Rat; assay: Hydrolysis of ketoprofen methyl ester by rat liver acetone powder
Description: as §1, §2

[23] = Calf powder 10 mg, 50 mg ester, pH 7.0, room temperature, 24 hours
[24] = Calf powder, 0.2 millimole ester, procedure of Example 1
[25] = Cat powder 10 mg, 50 mg ester, pH 7.0, room temperature, 24 hours
[26] = Seal powder 10 mg, 50 mg ester, pH 7.0, room temperature, 24 hours
[27] = Horse powder 10 mg, 50 mg ester, pH 7.0, room temperature, 24 hours
[28] = Mouse powder 10 mg, 50 mg ester, pH 7.0, room temperature, 24 hours
[29] = Sheep powder 10 mg, 50 mg ester, pH 7.0, room temperature, 24 hours
[30] = Bovine powder 10 mg, 50 mg ester, pH 7.0, room temperature, 24 hours
[31] = Bovine powder, 0.2 millimole ester, procedure of Example 1
[32] = Pigeon powder 10 mg, 50 mg ester, pH 7.0, room temperature, 24 hours
[33] = Dog powder 10 mg, 50 mg ester, pH 7.0, room temperature, 24 hours
[34] = Dog powder, 0.2 millimole ester, procedure of Example 1
[35] = Chicken powder 10 mg, 50 mg ester, pH 7.0, room temperature, 24 hours
[36] = Rabbit powder 10 mg, 50 mg ester, pH 7.0, room temperature, 24 hours
[37] = Goat powder 10 mg, 50 mg ester, pH 7.0, room temperature, 24 hours
[38] = Rat powder 10 mg, 50 mg ester, pH 7.0, room temperature, 24 hours

COC(=O)C(C)c1cccc(C(=O)c2ccccc2)c1 (stereo not shown) [Methyl Ester of Ketoprofen, ketoprofen methyl ester]
Percentage of Acid R-acid [1, 23]: 71.6% | Percentage of Acid S-acid [1, 23]: 28.4% | Percentage of acid [1, 23]: 5.7% | Acid Produced (%) [1, 24]: 7.3% | EE(%) of R-Acid [1, 24]: 45.6% | Percent of Acid R-Acid [1, 24]: 72.8% | Percent of Acid S-Acid [1, 24]: 27.2% | Percentage EE of acid (R or S) ([1]; Calf powder, Table 1, higher enantiomer (R)): 43.2% | Percentage of Acid R-acid [2, 25]: 64.1% | Percentage of Acid S-acid [2, 25]: 35.9% | Percentage of acid [2, 25]: 7.2% | Percentage EE of acid (R or S) ([2]; Cat powder, Table 1, higher enantiomer (R)): 28.2% | Percentage of acid [3]: 0.7% | Percentage of acid [4]: 0.6% | Percentage of acid [5]: 0.6% | Percentage of Acid R-acid [6, 26]: 48.9% | Percentage of Acid S-acid [6, 26]: 51.1% | Percentage of acid [6, 26]: 14.3% | Percentage EE of acid (R or S) ([6]; Seal powder, Table 1, higher enantiomer (S)): 2.2% | Percentage of acid [7]: 0.9% | Percentage of acid [8]: 3.2% | Percentage of Acid R-acid [9, 27]: 62.7% | Percentage of Acid S-acid [9, 27]: 37.3% | Percentage of acid [9, 27]: 24.1% | Percentage EE of acid (R or S) ([9]; Horse powder, Table 1, higher enantiomer (R)): 25.4% | Percentage of acid [10]: 3.0% | Percentage of Acid R-acid [11, 28]: 49.0% | Percentage of Acid S-acid [11, 28]: 51.0% | Percentage of acid [11, 28]: 9.4% | Percentage EE of acid (R or S) ([11]; Mouse powder, Table 1, higher enantiomer (R)): 2.0% | Percentage of Acid R-acid [12, 29]: 46.5% | Percentage of Acid S-acid [12, 29]: 53.5% | Percentage of acid [12, 29]: 18.1% | Percentage EE of acid (R or S) ([12]; Sheep powder, Table 1, higher enantiomer (S)): 7.0% | Percentage of acid [13]: 0.8% | Percentage of Acid R-acid [14, 30]: 71.2% | Percentage of Acid S-acid [14, 30]: 28.8% | Percentage of acid [14, 30]: 4.3% | Acid Produced (%) [14, 31]: 4.4% | EE(%) of R-Acid [14, 31]: 47.2% | Percent of Acid R-Acid [14, 31]: 73.6% | Percent of Acid S-Acid [14, 31]: 26.4% | Percentage EE of acid (R or S) ([14]; Bovine powder, Table 1, higher enantiomer (R)): 42.4% | Percentage of Acid R-acid [15, 32]: 66.7% | Percentage of Acid S-acid [15, 32]: 33.3% | Percentage of acid [15, 32]: 18.0% | Percentage EE of acid (R or S) ([15]; Pigeon powder, Table 1, higher enantiomer (R)): 33.4% | Percentage of Acid R-acid [16, 33]: 87.1% | Percentage of Acid S-acid [16, 33]: 12.9% | Percentage of acid [16, 33]: 8.0% | Acid Produced (%) [16, 34]: 6.2% | EE(%) of R-Acid [16, 34]: 76.6% | Percent of Acid R-Acid [16, 34]: 88.3% | Percent of Acid S-Acid [16, 34]: 11.7% | Percentage EE of acid (R or S) ([16]; Dog powder, Table 1, higher enantiomer (R)): 74.2% | Percentage of acid [17]: 1.1% | Percentage of Acid R-acid [18, 35]: 52.7% | Percentage of Acid S-acid [18, 35]: 47.3% | Percentage of acid [18, 35]: 8.1% | Percentage EE of acid (R or S) ([18]; Chicken powder, Table 1, higher enantiomer (R)): 5.4% | Percentage of Acid R-acid [19, 36]: 46.1% | Percentage of Acid S-acid [19, 36]: 53.9% | Percentage of acid [19, 36]: 54.9% | Percentage EE of acid (R or S) ([19]; Rabbit powder, Table 1, higher enantiomer (S)): 7.8% | Percentage of acid [20]: 0.6% | Percentage of Acid R-acid [21, 37]: 42.3% | Percentage of Acid S-acid [21, 37]: 57.7% | Percentage of acid [21, 37]: 15.5% | Percentage EE of acid (R or S) ([21]; Goat powder, Table 1, higher enantiomer (S)): 15.4% | Percentage of Acid R-acid [22, 38]: 52.7% | Percentage of Acid S-acid [22, 38]: 47.3% | Percentage of acid [22, 38]: 7.5% | Percentage EE of acid (R or S) ([22]; Rat powder, Table 1, higher enantiomer (R)): 5.4%

CCCOC(=O)C(C)c1cccc(C(=O)c2ccccc2)c1 (stereo not shown) [C-3]
EE(%) of R-Acid [1, 24]: 38.2% | Percent of Acid R-Acid [1, 24]: 69.1% | Percent of Acid S-Acid [1, 24]: 30.9% | EE(%) of R-Acid [14, 31]: 41.4% | Percent of Acid R-Acid [14, 31]: 70.7% | Percent of Acid S-Acid [14, 31]: 29.3% | EE(%) of R-Acid [16, 34]: 68.2% | Percent of Acid R-Acid [16, 34]: 84.1% | Percent of Acid S-Acid [16, 34]: 15.9%

CCOC(=O)C(C)c1cccc(C(=O)c2ccccc2)c1 (stereo not shown) [C-2]
EE(%) of R-Acid [1, 24]: 39.2% | Percent of Acid R-Acid [1, 24]: 69.6% | Percent of Acid S-Acid [1, 24]: 30.4% | EE(%) of R-Acid [14, 31]: 40.6% | Percent of Acid R-Acid [14, 31]: 70.3% | Percent of Acid S-Acid [14, 31]: 29.7% | EE(%) of R-Acid [16, 34]: 65.0% | Percent of Acid R-Acid [16, 34]: 82.5% | Percent of Acid S-Acid [16, 34]: 17.5%
